“And” between values parts separate entries of the source, which are not always exact repeats. Identical values can stand only once. Like-named read-outs stand apart in the source and are kept apart here.
Key:
[1] = system: HBV rcDNA in HepDE19 cells; assay: HepDE19 cell culture system, rcDNA quantitation using bDNA assay, MacSynergy II; assay type: cell-based, human hepatoma cell line
[2] = system: D type HBV in primary human hepatocytes; assay: microbe, parasite or virus in culture; assay type: cell-based; conditions: 3 replicates; Compound 24 0.00 nM; TDF nM: 10.00, 3.33, 1.11, 0.37, 0.12
Method in brief: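 Percoll-purified hepatocytes infected with genotype D HBV on day 1, then treated from day 2 with compound refreshed every other day; supernatant HBV DNA quantified by qPCR on day 8. Single agents run at 7 concentrations, 3-fold dilutions, triplicate; combinations in 5×5 matrix, analysed with MacSynergy.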

[3] = system: D type HBV in primary human hepatocytes (HBeAg); assay: microbe, parasite or virus in culture; assay type: cell-based; conditions: Hepatitis B virus, Hepatocyte
Method in brief: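 Primary hepatocytes isolated by liver perfusion and Percoll-purified were infected with genotype D HBV one day post-seeding. Compounds were added on day 2 (7 concentrations, 3-fold dilutions, triplicate), with medium refreshed every other day. Day-8 supernatant HBeAg was measured by ELISA and expressed as % inhibition versus DMSO control.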

[4] = Hepatitis B virus, HepDE19, read-out: ADDITIVE INHIBITION
[5] = Hepatitis B virus, HepDE19, read-out: AVERAGE % INHIBITION (rcDNA)

SMILES: CC(C)OC(=O)OCOP(=O)(CO[C@H](C)Cn1cnc2c(N)ncnc21)OCOC(=O)OC(C)C.O=C(O)/C=C/C(=O)O [TDF, tenofovir disoproxil fumarate, reference compound]
- SYNERGY PLOT (99.9%) […]. 96% [1]: 0
- inhibition at 0.004 µM ([1]; Hepatitis B virus, HepDE19): -5.27%
- inhibition at 0.008 µM ([1]; Hepatitis B virus, HepDE19): 0.67%
- inhibition at 0.016 µM ([1]; Hepatitis B virus, HepDE19): 2.82%
- inhibition at 0.031 µM ([1]; Hepatitis B virus, HepDE19): 6.57%
- inhibition at 0.063 µM ([1]; Hepatitis B virus, HepDE19): 41.7%
- inhibition at 0.003906 µM [1, 4]: -5.27%
- inhibition at 0.00781 µM [1, 4]: 0.67%
- inhibition at 0.01563 µM [1, 4]: 2.82%
- inhibition at 0.03125 µM [1, 4]: 6.57%
- inhibition at 0.0625 µM [1, 4]: 41.7%
- inhibition at 0.125 µM [1, 4]: 66.1%
- inhibition at 0.25 µM [1, 4]: 81.5%
- inhibition at 0.5 µM [1, 4]: 90.8%
- inhibition at 1 µM [1, 4]: 94.5%
- inhibition at 0.125 µM [1, 5]: 66.1%
- inhibition at 0.25 µM [1, 5]: 81.5%
- inhibition at 0.5 µM [1, 5]: 90.8%
- inhibition at 1 µM [1, 5]: 94.5%
- EC50 ([1]; Hepatitis B virus, HepDE19, read-out: Inhibitor B EC50): 89 nM
- EC50 ([1]; Hepatitis B virus, HepDE19, rcDNA by bDNA assay, single agent, read-out: INHIBITOR B EC50): 88 nM
- AVERAGE % INHIBITION HBV DNA [2]: −6.24% and −1.16% and −15.4% and 3.15%
- inhibition at 0.00012 µM ([3]; read-out: AVERAGE % INHIBITION HBeAg, TDF 0.12 nM alone): 7.02%
- inhibition at 0.00012 µM ([3]; read-out: AVERAGE % INHIBITION HBeAg, TDF 0.12 nM alone (compound 23 study)): 4.4%
- inhibition at 0.00037 µM ([3]; read-out: AVERAGE % INHIBITION HBeAg, TDF 0.37 nM alone): 6.23%
- inhibition at 0.00037 µM ([3]; read-out: AVERAGE % INHIBITION HBeAg, TDF 0.37 nM alone (compound 23 study)): 6.74%
- inhibition at 0.00333 µM ([3]; read-out: AVERAGE % INHIBITION HBeAg, TDF 3.33 nM alone): 11.6%
- inhibition at 0.00333 µM ([3]; read-out: AVERAGE % INHIBITION HBeAg, TDF 3.33 nM alone (compound 23 study)): 9.05%
- inhibition at 0.01 µM ([3]; read-out: AVERAGE % INHIBITION HBeAg, TDF 10.00 nM alone): 6.07%
- inhibition at 0.01 µM ([3]; read-out: AVERAGE % INHIBITION HBeAg, TDF 10.00 nM alone (compound 23 study)): 0.72%
- EC50 ([3]; read-out: Inhibitor A EC50): > 100 nM
